Source: patent publication US20100311714A1, “1H-IMIDAZO[4,5-c]QUINOLINONE COMPOUNDS” (priority 2009, published 2010)
Values after ≈ are worked out from the molar mass of the structure shown.

Legend:
[1] = biological target: T1, PI3K alfa (Homo sapiens, UniProt P42336); test: PI3K alpha kinase assay (Kinase-Glo luminescence); assay type: biochemical; settings: read-out: EPK_PI3Kalfa/IC50
T1 construct: His tag (C); made in house; host or cells: baculovirus BV1075; Tn5 (Trichoplusia ni) or TiniPro insect cells
T1 sequence (P42336 with tags, fused parts or gaps limits assumed): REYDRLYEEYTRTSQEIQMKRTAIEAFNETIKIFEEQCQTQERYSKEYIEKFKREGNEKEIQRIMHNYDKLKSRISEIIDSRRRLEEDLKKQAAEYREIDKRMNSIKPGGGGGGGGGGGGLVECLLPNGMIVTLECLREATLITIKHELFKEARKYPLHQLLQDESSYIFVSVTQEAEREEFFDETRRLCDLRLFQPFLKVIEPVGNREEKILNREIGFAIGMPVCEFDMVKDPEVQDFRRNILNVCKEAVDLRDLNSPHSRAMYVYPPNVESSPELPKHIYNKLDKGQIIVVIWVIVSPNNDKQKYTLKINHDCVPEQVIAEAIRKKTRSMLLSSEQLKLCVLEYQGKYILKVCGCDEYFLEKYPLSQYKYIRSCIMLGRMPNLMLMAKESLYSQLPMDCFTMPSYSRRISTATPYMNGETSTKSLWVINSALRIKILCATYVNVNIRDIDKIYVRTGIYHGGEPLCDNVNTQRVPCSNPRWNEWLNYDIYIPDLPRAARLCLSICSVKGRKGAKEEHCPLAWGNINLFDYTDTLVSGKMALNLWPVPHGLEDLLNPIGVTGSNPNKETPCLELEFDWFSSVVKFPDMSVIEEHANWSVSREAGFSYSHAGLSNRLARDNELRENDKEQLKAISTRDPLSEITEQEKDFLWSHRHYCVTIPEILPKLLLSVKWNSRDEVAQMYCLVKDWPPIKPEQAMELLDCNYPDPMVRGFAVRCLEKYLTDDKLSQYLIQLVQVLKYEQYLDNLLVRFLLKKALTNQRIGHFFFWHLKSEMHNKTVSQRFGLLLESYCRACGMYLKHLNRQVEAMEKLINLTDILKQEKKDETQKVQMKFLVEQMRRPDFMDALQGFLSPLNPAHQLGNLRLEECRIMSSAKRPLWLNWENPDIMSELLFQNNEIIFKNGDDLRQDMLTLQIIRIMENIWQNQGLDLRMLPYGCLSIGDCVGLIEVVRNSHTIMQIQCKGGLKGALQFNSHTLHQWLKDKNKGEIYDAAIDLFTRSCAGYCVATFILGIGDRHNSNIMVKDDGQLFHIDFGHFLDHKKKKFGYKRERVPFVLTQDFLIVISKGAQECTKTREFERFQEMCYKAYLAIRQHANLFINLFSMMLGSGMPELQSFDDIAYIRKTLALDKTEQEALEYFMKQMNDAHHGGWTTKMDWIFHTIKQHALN
In short: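 IC50 values come from a four-parameter logistic fit of percent inhibition at eight concentrations, typically 10 to 0.003 μM. Recombinant PI3Kα at 10 nM turned over 1 μM ATP with 10 μg/mL PI for 60 min at room temperature, and residual ATP was measured by Kinase-Glo.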

[2] = biological target: T2, PI3K delta (Homo sapiens, UniProt O00329); test: PI3K delta kinase assay (Kinase-Glo luminescence); assay type: biochemical; settings: read-out: EPK_PI3Kdelta/IC50
T2 construct: for the full-length p110-d subunit are generated and fused by overlapping PCR; His tag (C); made in house; host or cells: baculovirus BV1060; Tn5 (Trichoplusia ni) or TiniPro insect cells
T2 sequence (O00329 with tags, fused parts or gaps limits assumed): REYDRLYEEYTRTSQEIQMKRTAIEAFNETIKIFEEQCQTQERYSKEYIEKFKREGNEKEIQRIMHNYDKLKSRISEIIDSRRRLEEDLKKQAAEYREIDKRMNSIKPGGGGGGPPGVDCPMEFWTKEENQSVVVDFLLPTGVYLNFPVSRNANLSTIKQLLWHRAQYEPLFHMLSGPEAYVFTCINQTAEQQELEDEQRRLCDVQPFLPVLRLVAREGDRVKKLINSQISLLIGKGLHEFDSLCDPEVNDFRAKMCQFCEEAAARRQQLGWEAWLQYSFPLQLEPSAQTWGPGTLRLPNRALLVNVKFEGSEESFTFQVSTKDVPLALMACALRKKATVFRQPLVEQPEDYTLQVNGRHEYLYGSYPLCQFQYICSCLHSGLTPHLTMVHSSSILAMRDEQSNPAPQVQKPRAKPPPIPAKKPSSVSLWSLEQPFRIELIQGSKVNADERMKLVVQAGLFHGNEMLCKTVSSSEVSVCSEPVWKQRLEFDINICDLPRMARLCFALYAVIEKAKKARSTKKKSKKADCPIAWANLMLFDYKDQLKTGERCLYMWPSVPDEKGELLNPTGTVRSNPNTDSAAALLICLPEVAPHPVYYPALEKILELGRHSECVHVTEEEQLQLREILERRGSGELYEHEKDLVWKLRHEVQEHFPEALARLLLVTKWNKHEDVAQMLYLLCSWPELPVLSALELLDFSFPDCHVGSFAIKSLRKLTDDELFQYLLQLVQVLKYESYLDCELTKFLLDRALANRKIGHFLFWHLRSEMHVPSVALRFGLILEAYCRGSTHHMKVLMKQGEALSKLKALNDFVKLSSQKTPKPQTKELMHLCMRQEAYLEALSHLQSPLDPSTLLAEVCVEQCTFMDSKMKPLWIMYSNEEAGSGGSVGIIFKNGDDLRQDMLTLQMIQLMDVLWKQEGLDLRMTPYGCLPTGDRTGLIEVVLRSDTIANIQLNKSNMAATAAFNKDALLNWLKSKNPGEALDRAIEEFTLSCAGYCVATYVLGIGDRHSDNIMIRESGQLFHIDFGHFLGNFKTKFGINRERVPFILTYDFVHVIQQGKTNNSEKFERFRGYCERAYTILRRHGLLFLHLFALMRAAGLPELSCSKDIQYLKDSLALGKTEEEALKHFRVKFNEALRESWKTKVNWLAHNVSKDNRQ
In short: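 IC50s derive from 8-point inhibition curves fitted to a 4-parameter logistic model. Reaction: 10 nM purified p110δ/p85 iSH2 fusion, 1 μM ATP, 10 μg/mL PI substrate, pH 7.5 Tris buffer with MgCl2, NaCl, CHAPS and DTT, run 60 min at room temperature; remaining ATP read by Kinase-Glo luminescence.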

[3] = Parallel Artificial Membrane Permeability Assay (PAMPA) at pH 6.8; assay type: physicochemical
In short: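 Reported as log Pe, membrane permeability was determined by parallel artificial membrane assay at pH 6.8 per Wohnsland–Faller.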

[4] = High-throughput equilibrium solubility at pH 6.8; assay type: physicochemical; settings: pH 6.8, aqueous buffer, thermodynamic from solid; read-out: HT-Eq Sol/pH 6.8
In short: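 Following the procedure of Zhou et al. (2007), compound solubility was determined at pH 6.8.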

## CCOCc1cc(-c2ccc3ncc4c(c3c2)n(-c2ccc(F)nc2C)c(=O)n4C)cnc1N [Example 7.15, 8-(6-Amino-5-ethoxymethyl-pyridin-3-yl)-1-(6-fluoro-2-methyl-pyridin-3-yl)-3-methyl-1,3-dihydro-imidazo[4,5-c]quinolin-2-one]
[1]
  IC50: 59 nM
[2]
  IC50: 37 nM
[3]
  HT-Perm logPe pH6.8: −4
[4]
  solubility thermodynamic: 67.5 µg/mL (≈ 147 µM)

## CCNc1cc(-c2ccc3ncc4c(c3c2)n(-c2ccc(C)nc2C)c(=O)n4C)cnc1C [Example 14.6, 1-(2,6-Dimethyl-pyridin-3-yl)-8-(5-ethylamino-6-methyl-pyridin-3-yl)-3-methyl-1,3-dihydro-imidazo[4,5-c]quinolin-2-one]
[1]
  IC50: 19 nM
[2]
  IC50: 20 nM
[3]
  HT-Perm logPe pH6.8: −4.1
[4]
  solubility thermodynamic: 175 µg/mL (≈ 399 µM)

## Cc1cc(F)ncc1-n1c(=O)n(C)c2cnc3ccc(-c4cnc5c(ccn5C)c4)cc3c21 [Example 16.5, 1-(6-Fluoro-4-methyl-pyridin-3-yl)-3-methyl-8-(1-methyl-1H-pyrrolo[2,3-b]pyridin-5-yl)-1,3-dihydro-imidazo[4,5-c]quinolin-2-one]
[1]
  IC50: 27 nM
[2]
  IC50: 39 nM
[3]
  HT-Perm logPe pH6.8: −3.7
[4]
  solubility thermodynamic: 2 µg/mL (≈ 4.56 µM)

## CNc1ccc(-c2ccc3ncc4c(c3c2)n(-c2cnc(F)cc2C)c(=O)n4C)cn1 [Example 16.4, 1-(6-Fluoro-4-methyl-pyridin-3-yl)-3-methyl-8-(6-methylamino-pyridin-3-yl)-1,3-dihydro-imidazo[4,5-c]quinolin-2-one]
[1]
  IC50: 47 nM
[2]
  IC50: 207 nM
[3]
  HT-Perm logPe pH6.8: −4.2
[4]
  solubility thermodynamic: 55 µg/mL (≈ 133 µM)

## Cc1nc(N(C)C)ccc1-n1c(=O)n(C)c2cnc3ccc(-c4cncc(N)c4)cc3c21 [Example 19.5, 8-(5-Amino-pyridin-3-yl)-1-(6-dimethylamino-2-methyl-pyridin-3-yl)-3-methyl-1,3-dihydro-imidazo[4,5-c]quinolin-2-one]
[1]
  IC50: 65 nM
[2]
  IC50: 67 nM
[3]
  HT-Perm logPe pH6.8: −5.2
[4]
  solubility thermodynamic: 10 µg/mL (≈ 23.5 µM)

## CNc1ccc(-c2ccc3ncc4c(c3c2)n(-c2ccc(OCCOC)nc2C)c(=O)n4C)cn1 [Example 13.3, 1-[6-(2-Methoxy-ethoxy)-2-methyl-pyridin-3-yl]-3-methyl-8-(6-methylamino-pyridin-3-yl)-1,3-dihydro-imidazo[4,5-c]quinolin-2-one]
[1]
  IC50: 31 nM
[2]
  IC50: 26 nM
[3]
  HT-Perm logPe pH6.8: −4
[4]
  solubility thermodynamic: 10 µg/mL (≈ 21.3 µM)

## COc1ccc(-n2c(=O)n(C)c3cnc4ccc(-c5ccc6nccn6c5)cc4c32)c(OC)n1 [Example 8.10, 1-(2,6-Dimethoxy-pyridin-3-yl)-8-imidazo[1,2-a]pyridin-6-yl-3-methyl-1,3-dihydro-imidazo[4,5-c]quinolin-2-one]
[1]
  IC50: 80 nM
[2]
  IC50: 192 nM
[3]
  HT-Perm logPe pH6.8: −3.9
[4]
  solubility thermodynamic: 47 µg/mL (≈ 104 µM)

## COc1ccc(-n2c(=O)n(C)c3cnc4ccc(-c5cnc(N(C)C)nc5)cc4c32)c(Cl)n1 [Example 18.3, 1-(2-Chloro-6-methoxy-pyridin-3-yl)-8-(2-dimethylamino-pyrimidin-5-yl)-3-methyl-1,3-dihydro-imidazo[4,5-c]quinolin-2-one]
[1]
  IC50: 5 nM
[2]
  IC50: 4 nM
[3]
  HT-Perm logPe pH6.8: −3.5
[4]
  solubility thermodynamic: 37 µg/mL (≈ 80.1 µM)

## CNc1ncc(-c2ccc3ncc4c(c3c2)n(-c2ccc(N(C)C)nc2C)c(=O)n4C)cn1 [Example 19.1, 1-(6-Dimethylamino-2-methyl-pyridin-3-yl)-3-methyl-8-(2-methylamino-pyrimidin-5-yl)-1,3-dihydro-imidazo[4,5-c]quinolin-2-one]
[1]
  IC50: 11 nM
[2]
  IC50: 12 nM
[3]
  HT-Perm logPe pH6.8: −3.9
[4]
  solubility thermodynamic: 7 µg/mL (≈ 15.9 µM)

## CCOc1ccc(-c2ccc3ncc4c(c3c2)n(-c2ccc(N(C)C)nc2C)c(=O)n4C)cn1 [Example 19.3, 1-(6-Dimethylamino-2-methyl-pyridin-3-yl)-8-(6-ethoxy-pyridin-3-yl)-3-methyl-1,3-dihydro-imidazo[4,5-c]quinolin-2-one]
[1]
  IC50: 55 nM
[2]
  IC50: 395 nM
[3]
  HT-Perm logPe pH6.8: −4.4
[4]
  solubility thermodynamic: 5 µg/mL (≈ 11 µM)

## CCNc1cc(-c2ccc3ncc4c(c3c2)n(-c2ccc(OCCOC)nc2C)c(=O)n4C)cnc1C [Example 13.4, 8-(5-Ethylamino-6-methyl-pyridin-3-yl)-1-[6-(2-methoxy-ethoxy)-2-methyl-pyridin-3-yl]-3-methyl-1,3-dihydro-imidazo[4,5-c]quinolin-2-one]
[1]
  IC50: 13 nM
[2]
  IC50: 15 nM
[3]
  HT-Perm logPe pH6.8: −4.1
[4]
  solubility thermodynamic: 7 µg/mL (≈ 14 µM)

## COCc1ncc(-c2ccc3ncc4c(c3c2)n(-c2ccc(OC)nc2OC)c(=O)n4C)cc1OC [Example 8.12, 1-(2,6-Dimethoxy-pyridin-3-yl)-8-(5-methoxy-6-methoxymethyl-pyridin-3-yl)-3-methyl-1,3-dihydro-imidazo[4,5-c]quinolin-2-one]
[1]
  IC50: 41 nM
[2]
  IC50: 42 nM
[3]
  HT-Perm logPe pH6.8: −4
[4]
  solubility thermodynamic: 13 µg/mL (≈ 26.7 µM)

## COCCN(C)c1ccc(-n2c(=O)n(C)c3cnc4ccc(-c5cnc6c(ccn6C)c5)cc4c32)c(C)n1 [Example 15.7, 1-{6-[(2-Methoxy-ethyl)-methyl-amino]-2-methyl-pyridin-3-yl}-3-methyl-8-(1-methyl-1H-pyrrolo[2,3-b]pyridin-5-yl)-1,3-dihydro-imidazo[4,5-c]quinolin-2-one]
[1]
  IC50: 18 nM
[2]
  IC50: 21 nM
[3]
  HT-Perm logPe pH6.8: −3.9
[4]
  solubility thermodynamic: 4 µg/mL (≈ 7.88 µM)
